Non-standard residues stand in square brackets, D forms with d. Residues, ends and D or L forms follow the SMILES beside them. Nle = CCCC[C@H](N)C(=O)O; βAla = NCCC(=O)O

The target in experiment [1] is T1, human BRS-3 (Homo sapiens, UniProt P32247).
T1 construct: expressed in transfected cells; host or cells: 293EBNA cells, pE3 expression vector
T1 sequence (P32247 1-399): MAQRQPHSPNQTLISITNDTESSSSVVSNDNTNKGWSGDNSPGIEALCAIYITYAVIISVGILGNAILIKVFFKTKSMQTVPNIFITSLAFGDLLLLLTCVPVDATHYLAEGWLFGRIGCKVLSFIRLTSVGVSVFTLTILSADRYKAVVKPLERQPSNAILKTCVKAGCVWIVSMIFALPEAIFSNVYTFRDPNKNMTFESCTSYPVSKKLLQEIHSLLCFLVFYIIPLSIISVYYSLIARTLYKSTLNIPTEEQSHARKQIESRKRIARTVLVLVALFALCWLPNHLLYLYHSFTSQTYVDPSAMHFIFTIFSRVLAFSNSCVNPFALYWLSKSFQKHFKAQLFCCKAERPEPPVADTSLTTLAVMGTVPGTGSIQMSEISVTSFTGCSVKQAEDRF
Kind of experiment: Radioligand binding assay with 125I-dYB. The procedure: Peptide dYB (dY-Q-W-A-V-(beta-A)-H-F-Nle-amide) (SEQ ID NO:10) was made by Research Genetics (Huntsville, Ala.) and custom labeled by NEN Life Science (NEN, Boston, Mass.) with a ^125I on the dY phenyl ring. The specific activity of ^125I-dYB is 2200 ci/mmol. The 293EBNA cells expressing wild type or mutant BRS-3 grown in 150-mm^2 dishes were harvested in binding buffer (50 mM HEPES, pH 7.4, 5 mM MgCl2, 0.1% BSA) and disrupted with Dounce homogenization.
After removal of cell nuclei by a low speed centrifugation (1000×g) step, the cell membrane proteins were collected by centrifugation at 35,000×g for 20 minutes. The membrane protein concentration was determined by the Bradford method using BSA as standard.
For binding assays, ˜20 ug membrane proteins were incubated with 0.25 nM ^125I-dYB and various concentrations of competitors in 200 ul binding buffer. After a 2 hr incubation at room temperature, the binding reaction was terminated by filtering through a GF/c filter-mate and washing the filter with binding buffer using Packard 96-well Topcount Harvester. The amount of radioligand bound to the receptor was determined by measurement of the radioactivity on the filter through liquid scintillation counting. The non-specific binding was defined as the binding in the presence of 1 uM unlabeled dYB.

In the next experiment the target is T2, Rat BRS-3/E2 (RB3-E2) (Rattus norvegicus, UniProt Q8K418, E210K/I208V/N204T/Q192R/R196K/R211K/V198M).
T2 construct: expressed in transfected cells; host or cells: 293EBNA cells, pE3 expression vector
T2 sequence (Q8K418 1-399 Q192R/R196K/V198M/N204T/I208V/E210K/R211K): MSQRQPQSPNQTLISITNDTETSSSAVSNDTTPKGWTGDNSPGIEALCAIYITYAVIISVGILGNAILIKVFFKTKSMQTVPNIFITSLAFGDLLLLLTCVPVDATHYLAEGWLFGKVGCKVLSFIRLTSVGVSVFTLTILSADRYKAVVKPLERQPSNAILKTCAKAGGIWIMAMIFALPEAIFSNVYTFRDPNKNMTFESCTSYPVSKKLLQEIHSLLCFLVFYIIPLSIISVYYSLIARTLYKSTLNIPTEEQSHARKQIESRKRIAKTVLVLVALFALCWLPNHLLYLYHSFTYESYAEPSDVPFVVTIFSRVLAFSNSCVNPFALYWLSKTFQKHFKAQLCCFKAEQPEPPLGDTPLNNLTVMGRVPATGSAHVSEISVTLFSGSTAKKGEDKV
Kind of experiment: Calcium mobilization assay (FLIPR), chimeric receptor. It is filed as cell-based, rat/human. From the text: (§1) Chimeric rat/human BRS-3 genes and substitution mutant rat BRS-3 genes were constructed by using PCR mutagenesis techniques (Fong, T. in Structure-function analysis of G protein coupled receptors, J, Wess, ed, Wiley-Liss, pp. 1-20, (1999)). All the mutant and wild type BRS-3 genes were cloned into pE3 expression vector which contains CMV early promoter, hygromycin-resistance gene and OriP segment from Epstein-Bar virus.
(§2) The functional activity of rat BRS-3 was also studied by measuring the agonist-induced calcium mobilization response using a Fluorescence Imaging Plate Reader (Molecular Devices, Sunnyvale, Calif.). Transfected 293EBNA cells were plated onto poly-D-lysine coated 96-well plates with black wall and clear bottom (Becton Dickinson, Franklin Lakes, N.J.). After 16-48 hr culture, the cells were loaded with 4 uM Fluo-3-AM fluorescent calcium-indicator dye (Molecular Probes, Eugene, OR) in assay buffer (Hank's balanced salts solution, 10 mM HEPES, pH7.4, 0.1% bovine serum albumin, 2.5 mM probenecid).
(§3) The changes in intracellular calcium concentration, as indicated by Fluo-3 fluorescence, were immediately measured by FLIPR. Maximal changes in fluorescence over base line were used to determine agonist response. […]
(§4) The EC50 values were mean±S.E. calculated from dose-response curves of 3-5 repeated experiments using FLIPR assays.

The target of the next experiment is T3, Rat BRS-3/E3 (RB3-E3) (Rattus norvegicus, UniProt Q8K418, A302V/D306A/E299Q/E303D/P308H/S300T/V307M/V310I/V311F/Y298S).
T3 construct: expressed in transfected cells; host or cells: 293EBNA cells, pE3 expression vector
T3 sequence (Q8K418 1-399 Y298S/E299Q/S300T/A302V/E303D/D306A/V307M/P308H/V310I/V311F): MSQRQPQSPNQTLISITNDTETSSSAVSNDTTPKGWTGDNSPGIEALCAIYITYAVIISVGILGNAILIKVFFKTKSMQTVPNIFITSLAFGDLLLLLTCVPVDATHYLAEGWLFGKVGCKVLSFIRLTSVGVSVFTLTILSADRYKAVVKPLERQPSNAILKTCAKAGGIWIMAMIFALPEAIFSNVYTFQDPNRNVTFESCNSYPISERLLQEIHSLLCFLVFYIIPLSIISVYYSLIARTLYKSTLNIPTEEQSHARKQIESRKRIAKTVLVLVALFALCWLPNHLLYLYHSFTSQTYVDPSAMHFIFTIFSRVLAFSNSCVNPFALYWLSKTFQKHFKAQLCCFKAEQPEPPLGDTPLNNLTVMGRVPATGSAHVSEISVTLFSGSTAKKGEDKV
The experiment is described as above. It counts as cell-based, rat/human.
Description: as §1, §2, §3, §4

Experiment [2] concerns the target T1, human BRS-3. In words: Calcium mobilization assay (FLIPR), transfected 293EBNA cells. It counts as cell-based. On the procedure:
as §2
The changes in intracellular calcium concentration, as indicated by Fluo-3 fluorescence, were immediately measured by FLIPR. Maximal changes in fluorescence over base line were used to determine agonist response.
as §4

Molecule `CCCC[C@H](NC(=O)[C@H](Cc1ccccc1)NC(=O)[C@H](Cc1cnc[nH]1)NC(=O)CCNC(=O)[C@@H](NC(=O)[C@H](C)NC(=O)[C@H](Cc1c[nH]c2ccccc12)NC(=O)[C@H](CCC(N)=O)NC(=O)[C@H](N)Cc1ccc(O)cc1)C(C)C)C(N)=O` [dYB, [D-Tyr6-betaAla11-Phe13-Nle14] bombesin (6-14)] (H-[dY]QWAV[βAla]HF[Nle]-NH2) returned a Ki on human BRS-3 [1] of 1.8 ± 0.6 nM. The EC50 on Rat BRS-3/E2 (RB3-E2) was found to be 990 ± 140 nM; on Rat BRS-3/E3 (RB3-E3) it was 2.8 ± 0.6 nM; at human BRS-3 [2], 1.2 ± 0.4 nM.

As usually defined, the Ki is the equilibrium dissociation constant of an inhibitor or competing ligand from its target. A high value points to a looser hold on the target. The EC50 is the midpoint of the concentration-response curve.

The values above are taken from patent US20050222402A1, “Dna encoding rat bombesin receptor subtype-3 (brs-3) and uses thereof” (priority 2001, published 2005).
